Laboratory results reported in patent US6362369B1, “Phthalic acid diamide derivatives fluorine-containing aniline compounds as starting material, agricultural and horticultural insecticides, and a method for application of the insecticides” (Nihon Nohyaku Co., Ltd., priority 1997, dated 2002).

Key:
Format in all cases: in vivo
[1] = system: common cutworm (Spodoptera Litura); test: Insecticidal effect on common cutworm (Test Example 2); settings: 500 ppm, 25° C.; for Insecticidal effect (Test Example 2), judged from mortality / Insecticidal effect on common cutworm (Test Example 2), judged grade: cabbage leaf dip; for Insecticidal effect (Test Example 2), judged from mortality: 8 days after inoculation; for Insecticidal effect, Test Example 2: cabbage leaf immersed; for Insecticidal effect, Test Example 2 / Insecticidal effect on common cutworm (Test Example 2), judged grade: eight days after inoculation; for Insecticidal effect on common cutworm (Test Example 2), judged grade: second-instar larvae
Method in brief: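 After the treated material air-dries, it goes into a dish, second-instar larvae are added, and the dish is closed. Incubation runs at 25° C. On day eight, dead and living larvae are scored, and the calculated mortality is rated on an effect scale.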

[2] = system: diamondback moth (Plutella xylostella); test: Insecticidal effect on diamondback moth (Test Example 1); settings: for Insecticidal effect (Test Example 1), judged from mortality / Insecticidal effect, Test Example 1: diamondback moth; for Insecticidal effect (Test Example 1), judged from mortality: judged by the criterion of Test Example 1; for Insecticidal effect on diamondback moth (Test Example 1), judged grade: mortality judged according to the criterion shown in Test Example 1
Method in brief: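 Oviposition by adults on Chinese cabbage seedling; immersion; air-dry; 25° C room. Count of hatched larvae at day 6 post-immersion → mortality → effect graded by criterion. Triplicate, 10 insects/group.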

[3] = system: rice leafroller (Cnaphalocrocis medinalis); test: Insecticidal effect on rice leafroller (Test Example 3); settings: 500 ppm, 25° C., humidity 70%; for Insecticidal effect (Test Example 3), judged from mortality / Insecticidal effect on rice leafroller (Test Example 3), judged grade: rice lamina dip; for Insecticidal effect (Test Example 3), judged from mortality: 4 days after inoculation; for Insecticidal effect, Test Example 3: rice lamina immersed; for Insecticidal effect, Test Example 3 / Insecticidal effect on rice leafroller (Test Example 3), judged grade: four days after inoculation; for Insecticidal effect on rice leafroller (Test Example 3), judged grade: third-instar larvae
Method in brief: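 Insecticidal effect is judged by a predefined criterion from dead/alive counts four days after infesting air-dried lamina with third-instar larvae, kept on moistened filter paper at 25° C, 70% humidity.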

[4] = second-instar larvae of common cutworm
[5] = third-instar larvae of rice leafroller
[6] = judged by the mortality criterion of Test Example 1
[7] = common cutworm second-instar larvae
[8] = mortality judged by criterion of Test Example 1
[9] = rice leafroller third-instar larvae

In the case of `Cc1cc(-c2ccc(C(F)(F)F)cc2)ccc1NC(=O)c1cccc(I)c1C(=O)NC(C)C` [compound 1522], the “Insecticidal effect (Test Example 2), judged from mortality” value [1, 4] is reported as “A (100)”, the “Insecticidal effect (Test Example 1), judged from mortality” value [2] is reported as “A (100)” and the “Insecticidal effect (Test Example 3), judged from mortality” value [3, 5] is reported as “A (100)”.
`Cc1cc(I)ccc1NC(=O)c1c(Br)cccc1C(=O)NC(C)C` [compound 313] was tested, and the “Insecticidal effect, Test Example 2” value [1, 4] was “A (100)”, the “Insecticidal effect, Test Example 1” value [2, 6] was “A (100)” and the “Insecticidal effect, Test Example 3” value [3, 5] was “A (100)”.
`Cc1cc(OC(F)(F)Br)ccc1NC(=O)c1cccc(I)c1C(=O)NC(C)C` [compound 389] was tested, and the “Insecticidal effect, Test Example 2” value [1, 4] was “A (100)”, the “Insecticidal effect, Test Example 1” value [2, 6] was “A (100)” and the “Insecticidal effect, Test Example 3” value [3, 5] was “A (100)”.
In the case of `Cc1cc(OC(F)F)ccc1NC(=O)c1cccc(I)c1C(=O)NCc1ccccc1` [compound 1430], the “Insecticidal effect, Test Example 2” value [1, 7] is reported as “D (79-50)”, the “Insecticidal effect, Test Example 1” value [2, 8] is reported as “A (100)” and the “Insecticidal effect, Test Example 3” value [3, 9] is reported as “A (100)”.
With `CC(C)(C)NC(=O)c1c(I)cccc1C(=O)Nc1ccc2oc(C(F)(F)C(F)(F)C(F)(F)F)nc2c1` [compound 1639] the “Insecticidal effect (Test Example 2), judged from mortality” value [1, 4] was “A (100)”, the “Insecticidal effect (Test Example 1), judged from mortality” value [2] was “A (100)” and the “Insecticidal effect (Test Example 3), judged from mortality” value [3, 5] was “A (100)”.
With `Cc1c(Br)ccc(NC(=O)c2c(Br)cccc2C(=O)NC(C)C)c1C` [compound 312] the “Insecticidal effect, Test Example 2” value [1, 4] was “A (100)”, the “Insecticidal effect, Test Example 1” value [2, 6] was “A (100)” and the “Insecticidal effect, Test Example 3” value [3, 5] was “A (100)”.
With `CC(C)NC(=O)c1c(C(=O)Nc2ccc(C(F)(F)C(F)(F)C(F)(F)F)cc2)cccc1[N+](=O)[O-]` [compound 609] the “Insecticidal effect on common cutworm (Test Example 2), judged grade” value (“Insecticidal effect on common cutworm” for short) [1] was “B (99-90)”, the “Insecticidal effect on diamondback moth (Test Example 1), judged grade” value (“Insecticidal effect on diamondback moth” below) [2] was “A (100)” and the “Insecticidal effect on rice leafroller (Test Example 3), judged grade” value (“Insecticidal effect on rice leafroller” for short) [3] was “A (100)”.
`CC(C)NC(=O)c1ccccc1C(=O)Nc1ccc(C(O)(C(F)(F)F)C(F)(F)F)cc1` [compound 978] was tested, and the “Insecticidal effect, Test Example 2” value [1, 7] was “C (89-80)”, the “Insecticidal effect, Test Example 1” value [2, 8] was “A (100)” and the “Insecticidal effect, Test Example 3” value [3, 9] was “A (100)”.
With `CCCN(CC)C(=O)c1c(I)cccc1C(=O)Nc1ccc(C(F)(F)C(F)(F)F)cc1C` [compound 1573] the “Insecticidal effect (Test Example 2), judged from mortality” value [1, 4] was “A (100)”, the “Insecticidal effect (Test Example 1), judged from mortality” value [2] was “A (100)” and the “Insecticidal effect (Test Example 3), judged from mortality” value [3, 5] was “A (100)”.
For `CC(C)NC(=O)c1c(I)cccc1C(=O)Nc1ccc(OC(F)F)c(C(F)(F)F)c1` [compound 410], the “Insecticidal effect, Test Example 2” value [1, 4] was “A (100)”, the “Insecticidal effect, Test Example 1” value [2, 6] was “A (100)” and the “Insecticidal effect, Test Example 3” value [3, 5] was “A (100)”.
`Cc1cc(Cl)ccc1NC(=O)c1cccc(Cl)c1C(=O)NC(C)C` [compound 119] was tested, and the “Insecticidal effect, Test Example 2” value [1, 4] was “A (100)”, the “Insecticidal effect, Test Example 1” value [2, 6] was “A (100)” and the “Insecticidal effect, Test Example 3” value [3, 5] was “A (100)”.
In the case of `CCNC(=O)c1c(I)cccc1C(=O)Nc1ccc(C(F)(F)C(F)(F)F)cc1C` [compound 1313], the “Insecticidal effect, Test Example 2” value [1, 7] is reported as “A (100)”, the “Insecticidal effect, Test Example 1” value [2, 8] is reported as “A (100)” and the “Insecticidal effect, Test Example 3” value [3, 9] is reported as “A (100)”.
With `CC(C)NC(=O)c1c(Cl)cccc1C(=O)Nc1ccc(C(F)(F)C(F)(F)F)cc1C(F)(F)F` [compound 1384] the “Insecticidal effect, Test Example 2” value [1, 7] was “A (100)”, the “Insecticidal effect, Test Example 1” value [2, 8] was “A (100)” and the “Insecticidal effect, Test Example 3” value [3, 9] was “A (100)”.
With `Cc1ccc(F)cc1NC(=O)c1cccc(F)c1C(=O)NC(C)C` [compound 493] the “Insecticidal effect on common cutworm” value [1] was “A (100)”, the “Insecticidal effect on diamondback moth” value [2] was “A (100)” and the “Insecticidal effect on rice leafroller” value [3] was “A (100)”.
`CC(C)NC(=O)c1c(F)cccc1C(=O)Nc1ccc(C(F)(F)C(F)(F)F)cc1` [compound 891] was tested, and the “Insecticidal effect on common cutworm” value [1] was “A (100)”, the “Insecticidal effect on diamondback moth” value [2] was “A (100)” and the “Insecticidal effect on rice leafroller” value [3] was “A (100)”.
With `Cc1cc(Br)ccc1NC(=O)c1cccc(I)c1C(=O)NC(C)C` [compound 366] the “Insecticidal effect, Test Example 2” value [1, 4] was “A (100)”, the “Insecticidal effect, Test Example 1” value [2, 6] was “A (100)” and the “Insecticidal effect, Test Example 3” value [3, 5] was “A (100)”.
With `Cc1cc(OC(F)F)ccc1NC(=O)c1cccc(I)c1C(=O)NC(C)(C)C` [compound 1020] the “Insecticidal effect, Test Example 2” value [1, 7] was “A (100)”, the “Insecticidal effect, Test Example 1” value [2, 8] was “A (100)” and the “Insecticidal effect, Test Example 3” value [3, 9] was “A (100)”.
`CC(C)NC(=O)c1c(I)cccc1C(=O)Nc1ccc(OC(F)(F)C(F)OC(F)(F)F)cc1` (stereo not drawn) [compound 353] was tested, and the “Insecticidal effect, Test Example 2” value [1, 4] was “A (100)”, the “Insecticidal effect, Test Example 1” value [2, 6] was “A (100)” and the “Insecticidal effect, Test Example 3” value [3, 5] was “A (100)”.
